For four compounds, MIC and ED50 results are on record in patent US20070049564A1 (Wyeth, priority 2005, published 2007).

One experiment relates to Staph. Put plainly: Range of MIC for Staph. strains, including MRSA. The conditions noted are these: Staphylococcus aureus.
In the next experiment the test system is Staph. aureus Smith. The experiment is described as follows: In vivo activity (oral, iv; ED50) against Staph. aureus Smith in mice.
A further experiment deals with E. coli. The experiment is described as follows: Range of MIC for E. coli strains. The conditions noted are these: Escherichia coli.
Setting [1] is: MRSA, read-out: Range of MIC, Staph (Mouse Serum).
Setting [2] is: MRSA, read-out: Range of MIC, Staph (Water).
The mark [3] stands for this setting: Staphylococcus aureus, in Mus musculus, po, read-out: ED50 Staph Smith SOD.
[4] abbreviates: iv, read-out: ED50 Staph Smith SIV.
[5] abbreviates: 20 h, read-out: Range of MIC, E. coli (Mouse Serum).
The mark [6] stands for this setting: read-out: Minimum inhibitory concentration (MIC), E. coli (water).
[7] abbreviates: read-out: Range of MIC, E. coli (Water).

Each structure is given as a SMILES string. Converted amounts (≈) assume the structure as drawn. Read-outs that look alike come from different tables or passages of the source.

Procedure for Staph. aureus Smith: Representative examples of compounds of Formula I were tested for the oral efficacy using S. aureus Smith in mice.

The ED50 is the midpoint of the dose-response relation. For the compound `CCCCN(CC(=O)Nc1cc(N(C)C)c2c(c1O)C(=O)C1=C(O)[C@]3(O)C(=O)C(C(N)=O)=C(O)[C@@H](N(C)C)[C@@H]3C[C@@H]1C2)C(=O)OCOC(=O)C12CC3CC(CC(C3)C1)C2` [Example 39, ({[(2-{[(5aR,6aS,7S,10aS)-9-(aminocarbonyl)-4,7-bis(dimethylamino)-1,8,10a,11-tetrahydroxy-10,12-dioxo-5,5a,6,6a,7,10,10a,12-octahydrotetracen-2-yl]amino}-2-oxoethyl)(butyl)amino]carbonyl}oxy)methyl adamantane-1-carboxylate], the MIC lay in the range of 1 to 4 µg/mL (≈ 1.22 to 4.87 µM) with Staph. (MRSA, read-out: Minimum inhibitory concentration (MIC), Staph. (mouse serum)); 2 to 16 µg/mL (≈ 2.43 to 19.5 µM) with Staph. (MRSA, read-out: Minimum inhibitory concentration (MIC), Staph. (water)); 1 to 4 µg/mL (≈ 1.22 to 4.87 µM) in the experiment with Staph. (setting [1]); 2 to 16 µg/mL (≈ 2.43 to 19.5 µM) in the experiment with Staph. (setting [2]); 1 to 4 µg/mL (≈ 1.22 to 4.87 µM) in the experiment with E. coli (setting [5]); 1 to 4 µg/mL (≈ 1.22 to 4.87 µM) in the experiment with E. coli (read-out: Minimum inhibitory concentration (MIC), E. coli (mouse serum)). The MIC in the experiment on E. coli (setting [6]) and in the experiment on E. coli (setting [7]) was 16 to 32 µg/mL (≈ 19.5 to 38.9 µM) in each case. Moreover, the ED50 in the experiment on Staph. aureus Smith (setting [3]) came to 13.3 mg/kg; in the experiment with Staph. aureus Smith (setting [4]), 0.6 mg/kg.
Turning to `CN(C)c1cc(NC(=O)CN(C(=O)OCOC(=O)C23CC4CC(CC(C4)C2)C3)C(C)(C)C)c(O)c2c1C[C@H]1C[C@H]3[C@H](N(C)C)C(O)=C(C(N)=O)C(=O)[C@@]3(O)C(O)=C1C2=O` [Example 57, ({[(2-{[(5aR,6aS,7S,10aS)-9-(aminocarbonyl)-4,7-bis(dimethylamino)-1,8,10a,11-tetrahydroxy-10,12-dioxo-5,5a,6,6a,7,10,10a,12-octahydrotetracen-2-yl]amino}-2-oxoethyl)(tert-butyl)amino]carbonyl}oxy)methyl adamantane-1-carboxylate], the MIC in the experiment with Staph. (setting [1]) was 0.5 to 2 µg/mL (≈ 0.608 to 2.43 µM); in the experiment with Staph. (setting [2]), 4 to 16 µg/mL (≈ 4.87 to 19.5 µM); in the experiment on Staph. (read-out: Minimum inhibitory concentration (MIC), Staph (Human Serum)), 1 to 8 µg/mL (≈ 1.22 to 9.73 µM); in the experiment on Staph. (read-out: Minimum inhibitory concentration (MIC), Staph (Water)), 4 to 16 µg/mL (≈ 4.87 to 19.5 µM); in the experiment with E. coli (setting [5]), 0.5 to 4 µg/mL (≈ 0.608 to 4.87 µM); in the experiment on E. coli (read-out: Minimum inhibitory concentration (MIC), E. coli (Human Serum)), above 64 µg/mL. Moreover, the MIC in the experiment with E. coli (setting [6]) and in the experiment with E. coli (setting [7]) was above 64 µg/mL each time. The values for the ED50 in the experiment on Staph. aureus Smith (setting [3]) and with Staph. aureus Smith (setting [4]) were 6.36 mg/kg and 1.17 mg/kg, respectively.
As to `CCCN(CC(=O)Nc1cc(N(C)C)c2c(c1O)C(=O)C1=C(O)[C@]3(O)C(=O)C(C(N)=O)=C(O)[C@@H](N(C)C)[C@@H]3C[C@@H]1C2)C(=O)OCOC(=O)C(C)(C)CC` [Example 37, ({[(2-{[(5aR,6aS,7S,10aS)-9-(aminocarbonyl)-4,7-bis(dimethylamino)-1,8,10a,11-tetrahydroxy-10,12-dioxo-5,5a,6,6a,7,10,10a,12-octahydrotetracen-2-yl]amino}-2-oxoethyl)(propyl)amino]carbonyl}oxy)methyl 2,2-dimethylbutanoate], the MIC lay within 1 to 4 µg/mL (≈ 1.34 to 5.38 µM) in the experiment with Staph. (setting [1]), 2 to 4 µg/mL (≈ 2.69 to 5.38 µM) in the experiment on Staph. (setting [2]), 2 to 4 µg/mL (≈ 2.69 to 5.38 µM) in the experiment on E. coli (setting [5]) and 4 to 32 µg/mL (≈ 5.38 to 43 µM) with E. coli (setting [7]). Besides, the ED50 with Staph. aureus Smith (setting [3]) stood at 4.1 mg/kg; with Staph. aureus Smith (setting [4]), 0.55 mg/kg.
Consider `CCCCN(CC(=O)Nc1cc(N(C)C)c2c(c1O)C(=O)C1=C(O)[C@]3(O)C(=O)C(C(N)=O)=C(O)[C@@H](N(C)C)C3CC1C2)C(=O)OC(C)OC(C)=O` (stereo partly drawn) [Example 32, 1-({[(2-{[(7S,10aS)-9-(aminocarbonyl)-4,7-bis(dimethylamino)-1,8,10a,11-tetrahydroxy-10,12-dioxo-5,5a,6,6a,7,10,10a,12-octahydrotetracen-2-yl]amino}-2-oxoethyl)(butyl)amino]carbonyl}oxy)ethyl acetate], for which the MIC with Staph. (setting [1]) was 0.25 to 2 µg/mL; in the experiment with Staph. (setting [2]), 0.5 to 4 µg/mL; with E. coli (setting [5]), 0.5 to 1 µg/mL; with E. coli (setting [7]), 1 to 4 µg/mL. The ED50 in the experiment on Staph. aureus Smith (setting [3]) worked out at 7.7 mg/kg; with Staph. aureus Smith (setting [4]), 0.56 mg/kg.
